In publication PMC8571951, “An activity‐based bioprobe differentiates a novel small molecule inhibitor from a LOXL2 antibody and provides renewed promise for anti‐fibrotic therapeutic strategies” (Clinical and Translational Medicine, 2021):

Biological target: T1, LOXL2 (Homo sapiens, UniProt Q9Y4K0)
T1 sequence (Q9Y4K0 26-774): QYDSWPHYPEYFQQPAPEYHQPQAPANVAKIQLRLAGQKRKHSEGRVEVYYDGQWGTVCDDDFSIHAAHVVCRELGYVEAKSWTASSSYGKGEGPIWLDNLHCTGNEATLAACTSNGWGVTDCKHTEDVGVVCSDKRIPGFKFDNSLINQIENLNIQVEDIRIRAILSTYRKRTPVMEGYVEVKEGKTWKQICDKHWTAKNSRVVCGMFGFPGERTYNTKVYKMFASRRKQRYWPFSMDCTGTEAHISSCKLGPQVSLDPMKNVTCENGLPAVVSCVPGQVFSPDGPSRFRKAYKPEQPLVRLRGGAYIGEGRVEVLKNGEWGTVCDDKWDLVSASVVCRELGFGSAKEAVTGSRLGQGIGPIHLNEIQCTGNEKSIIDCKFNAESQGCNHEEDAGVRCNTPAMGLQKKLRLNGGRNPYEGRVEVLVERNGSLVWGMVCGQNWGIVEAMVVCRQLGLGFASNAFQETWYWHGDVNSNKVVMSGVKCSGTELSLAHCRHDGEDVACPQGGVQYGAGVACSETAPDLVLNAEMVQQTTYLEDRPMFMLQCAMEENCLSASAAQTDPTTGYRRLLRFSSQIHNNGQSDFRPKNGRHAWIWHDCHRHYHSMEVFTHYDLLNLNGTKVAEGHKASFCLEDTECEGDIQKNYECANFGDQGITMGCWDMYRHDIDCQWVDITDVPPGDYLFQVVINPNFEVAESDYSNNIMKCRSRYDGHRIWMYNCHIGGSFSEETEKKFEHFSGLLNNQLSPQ
Experiment: Phase 1 study, LOXL2 activity in plasma after single oral dose (PXS-5878/Simoa)
Assay type: in vivo
Parameters: from tissue; host or cells: human plasma (activity) and human serum (protein concentration) from clinical trial subjects
Conditions: for Inhibition of LOXL2 activity: healthy humans
Description: To confirm the therapeutic potential of the anti‐fibrotic PXS‐5338 (Figure S5) in humans, LOXL2 inhibition after oral administration was examined in a phase 1 study. […] This underscored the fast resynthesis of LOXL2 in humans, similar to that seen in rodents, with ca. 80% of enzyme activity returning within 24 h.
FIGURE 3 Inhibition of human lysyl oxidase‐like 2 (LOXL2) enzymatic activity by PXS‐5338 in clinical trials. (A) LOXL2 protein concentration in human serum is fairly constant over 24 h. Protein concentrations normalised to pre‐dose levels are plotted over time in healthy subjects treated with different doses (placebo, 100, 200 and 400 mg) of PXS‐5338. Mean ± SD with n = 6/time point. Phase 1 study with healthy male volunteers, ANZCTR ACTRN12617001444370. Legend of (A) also applies to (B) and (C). (B) Dose‐dependent inhibition of LOXL2 in plasma following a single oral dose of 100, 200 mg or 400 mg PXS‐5338. PXS‐5878/Simoa® platform used to measure the residual activity. Mean ± SD with n = 6/time point. (C) Pharmacokinetic (PK) profile of PXS‐5338 in healthy human males. […] (D) Correlation between LOXL2 protein concentration versus % inhibition. Activity data normalised to pre‐dose value.
The platform consists of an activity-based probe (ABP) for the detection of enzyme activity in conjunction with the Simoa^TM (single molecule array) bead technology to isolate the protein. This platform has enabled accurate measurement of total protein and enzymatic activity of LOXL2 from small volumes of serum, plasma and tissue.
In the immunoassay, paramagnetic capture beads are coated with a LOXL2 capture antibody (AF2639). 100 µL of pre-diluted (4-fold) sample in buffer (0.5% Casein, 0.25% Tween-20 in PBS) is combined in a cuvette with the capture beads (25 µL for protein content at 1.6 x 10^7 beads/mL; 100 µL for enzyme activity at 4 x 10^6 beads/mL). The biotinylated detector agent [either a second anti-LOXL2 antibody (AB213598) for protein content or the ABP (PXS-5878) for enzyme activity) is then added during the same incubation with intermittent shaking at room temperature (35 minutes for protein content or 54 minutes for enzyme activity).
Target molecules present in the sample are captured by the antibody coated beads and bound with the detector agent simultaneously. After incubation, beads are pelleted by magnetic separation, excess sample/buffer and reagents aspirated off and beads resuspended in wash buffer to remove unbound proteins and excess reagents.
Following protein capture and incubation with the detector, a conjugate of streptavidin-β-galactosidase (SβG; 100 µL at 300 - 350 pM) is mixed with the beads and incubated (5 minutes with intermittent shaking at room temperature). SβG binds to the biotinylated detector agent, resulting in enzyme-labelling of captured LOXL2. Following a final wash, the beads are resuspended in a resorufin-β-D-galactopyranoside (RGP) substrate solution and transferred to a Simoa^TM Disc (containing a microarray to separate beads into individual microwells). After settling into the microarray via gravity, beads are then sealed in microwells with oil. If LOXL2 is captured and labelled on the bead, β-galactosidase hydrolyses the RGP substrate in the microwell into a fluorescent product that provides the signal for measurement. A single-labelled target molecule results in sufficient fluorescent signal that can be detected and counted by the Simoa^TM optical system. The percentage of bead-containing wells in the array that have a positive signal is proportional to the amount of target or activity present in the sample.
To determine protein concentration, data can be interpolated from a calibration curve using rh LOXL2. For enzyme activity, samples are incubated for at least 30 minutes at room temperature with or without the pan-LOX inhibitor (100 μM BAPN). […]

CC(C)c1c(Cc2ccc(S(C)(=O)=O)nc2)c2ncccc2n1C/C(F)=C/CN [PXS‐5338]
Inhibition of LOXL2 activity (single oral dose 100 mg, 4 h): 80% | Inhibition of LOXL2 activity (single oral dose 100 mg, 24 h): approximately 20% | Inhibition of LOXL2 activity (single oral dose 200 mg, 4 h): complete inhibition | Inhibition of LOXL2 activity (single oral dose 200 mg, 24 h): 50% | Inhibition of LOXL2 activity (single oral dose 400 mg, 4 h): complete inhibition | Inhibition of LOXL2 activity (single oral dose 400 mg, 24 h): 70% | IC50 (phase 1 samples, n = 210, read-out: Calculated IC50 from correlation of concentration versus % inhibition): 0.024 µM
